Key:
[1] = Thermal stability by TGA (temperature at weight loss); format: physicochemical; settings: for Temp. at Weight Loss 5% / Temp. at Weight Loss 10% / Temp. at Weight Loss 15%: TGA, N2 at 10 °C/min; for Temp. at Weight Loss 5%: 5% weight loss; for Temp. at Weight Loss 10%: 10% weight loss; for Temp. at Weight Loss 15%: 15% weight loss; for thermal stability: result in words, compared with material A (OXE-1)
[2] = Solubility of the photoinitiators in organic solvents; format: physicochemical; settings: 20°C, 100 g solvent

Temp. at Weight Loss 5% [1] [°C]	Temp. at Weight Loss 10% [1] [°C]	Temp. at Weight Loss 15% [1] [°C]	solubility ([2]; solvent PGMEA) [g]	solubility ([2]; solvent cyclohexanone) [g]	Structure (SMILES)	thermal stability [1]
185	201	213			CCCCCCC(=NOC(=O)c1ccccc1)C(=O)c1ccc(Sc2ccccc2)cc1 [A, 1-(4-phenylthiophenyl)-n-octane-1,2-dione-2-benzoic acid oxime ester, reference compound]	
205	225	236	27.49	35	O=C(ON=C(CC1CCCC1)C(=O)c1ccc(Sc2ccccc2)cc1)c1ccccc1 [B, 1-(4-phenylthiophenyl)-(3-cyclopentyl)-propane-1,2-dione-2-benzoic acid oxime ester]	better thermal stability than that of material A
230	245	255	6.93	18	CCn1c2ccc(C(=O)C(CC3CCCC3)=NOC(=O)c3ccccc3)cc2c2cc(C(=O)c3ccccc3C)ccc21 [C, 1-(6-o-methylbenzoyl-9-ethylcarbazole-3-yl)-(3-cyclopentyl)-propane-1,2-dione-2-benzoic acid oxime ester]	better thermal stability than that of material A
